According to patent US12209112B2, “Methods of preventing or treating diseases, conditions, or disorders associated with chemotherapy” (The Chinese University of Hong Kong, priority 2022, dated 2025):
Like-named read-outs stand apart in the source and are kept apart here.

Experiments:
hESC-CMs [1] = test: Nuclear condensation by Hoechst 33342 stain (cardiomyocyte apoptosis); assay type: cell-based, human
Description: (§1) To evaluate mitochondrial morphology as a surrogate of cell and mitochondrial viability, hESC-CMs were incubated in B27+/RPMI−1640 media containing 50 nmol/L MitoTracker Deep Red (MTDR) (Thermo Fisher Scientific, USA), and 1 μg/ml Hoechst 33342 (Thermo Fisher Scientific, USA) for 20 minutes. Microscopic images were acquired using DMi8s Research Inverted Thunder Imager Live Cell System (Leica, Germany). For MTDR and Hoechst 33342 imaging, excitation wavelengths of […] and 480 nm, respectively, were used. Mitochondrial morphology was classified into three categories: i) elongated, ii) punctate, and iii) perinuclear. Nuclear morphology was classified as either condensed or normal.

hESC-CMs [2] = test: α-actinin immunostaining for sarcomeric integrity; assay type: cell-based, human
Description: hESC-CMs were permeabilized using 0.1% Triton X-100 (Thermo Fisher Scientific, USA). After permeabilizing for 15 minutes, cells were washed three times in PBS, and further permeabilization was blocked by incubating cells in PBS with 10% FBS (Hyclone, USA) for 1 hour at room temperature. Cells were incubated with the primary anti-actinin antibody (1:400) (Abcam, UK) and diluted in PBS with 10% FBS overnight. Cells were then washed three times with PBS and incubated with a goat anti-mouse IgG1 secondary antibody (1:1000 diluted in PBS with 10% FBS) (Thermo Fisher Scientific, USA) for 1 hour at room temperature. Finally, cells were washed twice with PBS and mounted using ibidi mounting medium with DAPI (Ibidi, Germany). Microscopic images were acquired using the DMi8s Research Inverted Thunder Imager Live Cell System (Leica, Germany) at 20×, 40×, and 100× magnification.

hESC-CMs [3] = test: Mitochondrial morphology analysis (MitoTracker Deep Red); assay type: cell-based, human
Description: as §1

hESC-CMs [4] = test: Real-time PCR of genes important for mitochondrial function; assay type: cell-based, human
Description: RNA was extracted using TRIzol™ Reagent (Thermo Fisher Scientific, USA) as per manufacturer's protocol. RNase-free reagents and consumables were used. RNA concentration and A260/280 ratio were determined using Synergy HTX Multi-Mode microplate reader (Agilent Technologies, USA).
cDNA was synthesized using the PrimeScript™ RT Master Mix (Takara, Japan) for real-time quantitative polymerase chain reaction (qPCR). Briefly, reverse transcription used 2 μl of 5× PrimeScript™ RT Master Mix, 0.5 μg of total RNA, and RNase-free dH2O added to total mixture volume of 10 μl. The reaction was carried out at 37° C. for 15 minutes and 85° C. for 5 seconds.
qPCR was performed using SYBR Green Master Mix (Promega, USA) as per manufacturer's protocol. A total reaction volume of 10 μl included 5 μl GoTaq® qPCR Master Mix 2×, 0.3 μl 10 nmol/L primers mix, and 30 ng cDNA template. The qPCR condition was: 1 cycle of 95° C. for 2 minutes, 40 cycles of 95° C. for 3 seconds, and 60° C. for 30 seconds. Expression level of genes was quantified using the 2^−ΔΔCT method on a ABI QuantStudio 12-Flex QPCR System W/96 Fast & 384 (Thermo Fisher Scientific, USA). Primer sequences used were summarized as follows for the respective gene sequences (Table 2).

C57BL/6J male mice = assay type: in vivo, mouse
Description: Recombinant human GDF15/MIC-1 protein (CHO-derived) was purchased from PeproTech Inc. (Cranbury, USA) and described in Example 1. […] For in vitro studies, solid lyophilized powder of these two drugs were solubilized at the recommended concentrations in sterile water, and separate aliquots were made and frozen until thawing prior to addition to cell cultures. For in vivo studies, all agents were dissolved in […] normal saline according to the required concentrations (doxorubicin, 5 mg/kg; GDF15, 0.5 mg/kg; dexrazoxane, […]), and the final volume of each intraperitoneal injection was 100 μl. The recommended dose ratio of dexrazoxane to doxorubicin was 10 to 1. In the following examples, 5 mg/kg of doxorubicin was used which correspond to 50 mg/kg of dexrazoxane. The FDA recommends that dexrazoxane be injected within 0.5 hour prior to doxorubicin infusion in individuals. This was followed in the same manner when applying to the test animals.
To induce cardiotoxicity in the mouse, four weekly intraperitoneal injections of doxorubicin at 5 mg/kg were administered. After one dose of doxorubicin at 5-6 mg/kg in a mouse, the level of exposure has been estimated to be similar to that of a human individual being given a standard dose of doxorubicin at approximately 60 mg/m^2. […]
The image processing and analysis software, ImageJ version 1.53K, was used for evaluation of histopathology from mouse experiments. For Masson's trichrome staining, the acquired images were converted from color to grayscale using ImageJ, the blue-stained collagen were segmented (separated) using thresholding, and the threshold areas in a representative microscopic field were quantified. […] Cells containing brown staining (TUNEL-positive cells) were counted in a representative microscopic field for each mouse in each group.

[5] = hESC-CMs, pretreatment in the presence of Dox
[6] = 300 ng/ml GDF15 pretreatment, hESC-CMs exposed to doxorubicin

Row | Compound | extent of nuclear condensation compared with dexrazoxane (hESC-CMs [1]; [5]) | hESC-CMs displaying nuclear condensation (hESC-CMs [1]; pretreated with 300 ng/ml GDF15, then doxorubicin) [%] | sarcomere structure (α-actinin immunostaining) (hESC-CMs [2]; hESC-CMs, agent only, no doxorubicin) | sarcomeric damage (α-actinin immunostaining) (hESC-CMs [2]; hESC-CMs, pretreatment preceding doxorubicin) | elongated mitochondria (hESC-CMs [3]; [6]) [%] | perinuclear mitochondria (hESC-CMs [3]; [6]) [%] | mitochondrial integrity compared with dexrazoxane (hESC-CMs [3]; [5]) | expression of genes important for mitochondrial function (hESC-CMs [4]; hESC-CMs pretreated with GDF15 prior to doxorubicin exposure) | cardiac fibrosis (Masson's trichrome) (C57BL/6J male mice; mice, pretreatment before doxorubicin, versus doxorubicin only) | hESC-CMs displaying nuclear condensation (hESC-CMs [1]; doxorubicin-treated, no pretreatment) [%] | sarcomere structure (α-actinin immunostaining) (hESC-CMs [2]; hESC-CMs exposed to Dox alone) | punctation or perinuclear changes of mitochondria (hESC-CMs [3]; doxorubicin-treated cells, no pretreatment, untreated control 5.4±4.2%) [%] | elongated mitochondria (proportion of hESC-CMs) (hESC-CMs [3]; doxorubicin-treated cells, no pretreatment, untreated control 94.6±5.8%) [%] | expression of genes important for mitochondrial function (hESC-CMs [4]; hESC-CMs, doxorubicin alone) | cardiac fibrosis (Masson's trichrome) (C57BL/6J male mice; mouse, in vivo)
1 | GDF15: commercially available recombinant human GDF-15 protein (PeproTech 120-28C), CHO cell-derived, SEQ ID NO: 1 | performed similarly to dexrazoxane | 12.8±1.7 | well-organized, striated sarcomeres | sarcomeric damage was evidently attenuated | 62.5±11.0 | 13.2±14.7 | performed similarly to dexrazoxane | improved | visually and quantitatively reduced | – | – | – | – | – | –
2 | COc1cccc2c1C(=O)c1c(O)c3c(c(O)c1C2=O)C[C@@](O)(C(=O)CO)C[C@@H]3OC1C[C@H](N)[C@H](O)[C@H](C)O1.Cl (stereo partly drawn) [Dox, (8S,10S)-10-[(3-Amino-2,3,6-trideoxy-L-lyxohexopyranosyl)oxy]-7,8,9,10-tetrahydro-6,8,11-trihydroxy-8-(hydroxyacetyl)-1-methoxynaphthacene-5,12-dione hydrochloride, reference compound] | – | – | – | – | – | – | – | – | – | > 40 | considerable disruption of sarcomere structure and nuclear condensation | 47.3±12.6 | 24.5±17.1 | suppressed | diffuse myocardial interstitial fibrosis as well as perivascular fibrosis
